US20230278958A1 (Merck Patent GmbH, priority 2020, published 2023)

Assays:
[1] = system: NCI-H226 cells; test: Viability assay in NCI-H226 (Yap-dependent) cells, CyQUANT; type: cell-based; details: Homo sapiens, 96 hour incubation
Experimental: The ability of YAP-TEAD inhibitors to inhibit tumor cell growth was evaluated using two different cell lines: NCI-H226, which is a YAP dependent cell line, and SW620 cells, where YAP and TAZ were knocked out using CRISPR to generate a YAP independent cell line.
For the assay, cells were treated in duplicates with the test compounds in a 10-point dose, 1:3 dilution steps, with the top concentration starting at 30 μM (final concentration in assay). After a 96 hour incubation at 37° C., 95% rH, and 5% CO2, a cell-permeant DNA-binding dye that stains only healthy cells (CyQUANT®, Promega) was added to the cells, allowing the quantification of cell viability.
Cell Media: The NCI-H226 cells were cultured in the following media: RPMI 1640, +10% FBS, +1× GlutaMAX, +10 mM HEPES, +0.5% Pen/Strep. The SW620-KO cells were cultured in the following media: DMEM/F-12, +10% FBS, +1× GlutaMAX, +10 mM HEPES, +0.5% Pen/Strep.
(§1) Reagents: The reagents used are listed below:
(§2) Cell culture: The cells were examined using an inverted microscope to check for health, cell density, etc. To dissociate adherent cells, the monolayer of cells was washed once with pre-warmed PBS. After removing the PBS, 3 ml pre-warmed Accutase was added to a F75 flask, dispersed evenly and the flask was allowed to sit in incubator for ˜4-5 minutes.
(§3) When a single cell suspension was obtained, 7 ml of prewarmed growth media was added and resuspended with the cells. The cell suspension was transferred to a sterile 15 ml conical centrifuge tube, and spun for 5 min at 300×g, RT. The supernatant was discarded and the pellet was resuspended in 10 ml of pre-warmed growth media.
(§4) The total cell count was determined, and 20 μl of the desired cell number was added to each well of a 384 well plate using a Multidrop Combi. The plates were then incubated for 24 hours at 37° C., 95% rH, and 5% CO2.
(§5) Compound treatment: 24 hours after seeding, the cells were treated with compounds.
(§6) A 1:333 dilution of compounds, diluted in DMSO, was made to get a final concentration of 0.3% DMSO per well. To transfer the compounds to the assay plate, 120 nl was shot from Labcyte low dead volume plates to the cell plates containing 20 μl media/well with the ECHO 555 liquid handling system.
(§7) After treatment, the cells were fed with 20 μl fresh pre-warmed assay media using a Multidrop combi.
The assay plates were then incubated for 96 h at 37° C., 95% rH, and 5% CO2.
96h after treatment 30 μl of CyQuant® reagent was added to the assay plates using a Multidrop combi in the dark. The plates were then incubated for 1 hour at 37° C., 95% rH and 5% CO2. Thereafter, the assay plates were removed from the incubator and allowed to equilibrate to RT for 30 min in the dark without lid. Finally, they were measured using an EnVision microplate reader with a FITC bottom read program.
Experimental data in the Viability assay of the compounds shown in Table 1 are shown in Table 3 below and classified in the following groups: […]

[2] = system: YAP-TEAD interaction; test: SK-HEP-1 reporter assay (8x TEAD responsive elements driving NanoLuc luciferase); type: cell-based; details: Homo sapiens, SK-HEP1; SK-HEP-1 TEAD-NanoLuc reporter cells, 24 hour incubation, luciferase readout
Experimental: To identify inhibitors of YAP-TEAD interaction, 8× TEAD responsive elements driving the NanoLuc® luciferase gene were stably integrated into SK-HEP-1 cells (ECACC #: 91091816).
For the assay, cells were treated in duplicates with the test compounds in a 10-point dose, with the top concentration starting at 30 μM (final concentration in assay). After a 24 hour incubation at 37° C., 95% rH, and 5% CO2, a luciferase substrate/lysis reagent mix (NanoGlo™, Promega) was added to the cells, allowing the quantification of cellular luciferase activity.
Cell Media: The cells were cultured in the following media: MEM, +10% FBS, +1× GlutaMAX, +1 mM Sodium-Pyruvate, +100 μM Non-essential amino acids, +0.1 mg/ml Hygromycin. The media used for the assay was: MEM (w/o Phenol Red), +10% FBS, +1× GlutaMAX, +1 mM Sodium-Pyruvate, +100 μM Non-essential amino acids, +0.5% Pen/Strep
as §1
as §2, with “health and” for “health,”, “density.” for “density, etc.”, “Accutase®” for “Accutase”
as §3, §4, §5, §6, §7
The assay plates were then incubated for another 24 h at 37° C., 95% rH, and 5% CO2.
Luciferase readout: 24 h after treatment, the plates were taken out of the incubator and were allowed to equilibrate to RT. 30 μl of NanoGlo® reagent was added to the plates in the dark. Plates were shaken for 20 min on a Teleshake (˜1500 rpm) in the dark. The luminescence was then measured using an EnVision microplate reader. The IC50 values were generated using Genedata Screener®.
Experimental data in SK-HEP-1 reporter assay of the compounds shown in Table 1 are shown in Table 2 below and classified in the following groups: […]

Compound | IC50 [1] [µM] | IC50 [2] [nM]
N#Cc1ccc2c(c1)c1cc(C(=O)O)ccc1n2-c1ccc(C(F)(F)F)cc1 [Compound 12, 6-cyano-9-[4-(trifluoromethyl)phenyl]-9H-carbazole-3-carboxylic acid] | 1 to 10 | 10 to 100
Cc1ccc2c(c1)c1cc(C(=O)N3CCCC(O)C3)ccc1n2-c1ccc(C(F)(F)F)cc1 (stereo not drawn) [Compound 50, 1-{6-methyl-9-[4-(trifluoromethyl)phenyl]-9H-carbazole-3-carbonyl}piperidin-3-ol] | 0.1 to 1 | 100 to 1000
Cc1ccc2c(c1)c1cc(C(=O)N[C@](C)(CO)c3ccccc3)ccc1n2-c1ccc(C(F)(F)F)cc1 [Compound 46, N-[(2S)-1-hydroxy-2-phenylpropan-2-yl]-6-methyl-9-[4-(trifluoromethyl)phenyl]-9H-carbazole-3-carboxamide] | 0.1 to 1 | 100 to 1000
CCc1ccc2c(c1)c1cc(C(=O)O)ccc1n2-c1ccc(C(F)(F)F)cc1 [Compound 47, 6-ethyl-9-[4-(trifluoromethyl)phenyl]-9H-carbazole-3-carboxylic acid] | 0.001 to 0.1 | 1 to 10
O=C(O)c1ccc2c(c1)c1ccncc1n2-c1ccc(C(F)(F)F)cc1 [Compound 5, 9-[4-(trifluoromethyl)phenyl]-9H-pyrido[3,4-b]indole-6-carboxylic acid] | 0.1 to 1 | 100 to 1000
O=C(O)c1ccc2c(c1)c1cc(OC(F)(F)F)ccc1n2-c1ccc(C(F)(F)F)cc1 [Compound 15, 6-(trifluoromethoxy)-9-[4-(trifluoromethyl)phenyl]-9H-carbazole-3-carboxylic acid] | 0.001 to 0.1 | 10 to 100
O=C(O)c1ccc2c(c1)c1cc(Cc3ccccc3F)ccc1n2-c1ccc(C(F)(F)F)cc1 [Compound 3, 6-[(2-fluorophenyl)methyl]-9-[4-(trifluoromethyl)phenyl]-9H-carbazole-3-carboxylic acid] | 1 to 10 | 100 to 1000
Cc1cc2c3cc(C(=O)O)ccc3n(-c3ccc(C(F)(F)F)cc3)c2cc1C [Compound 62, 6,7-dimethyl-9-[4-(trifluoromethyl)phenyl]-9H-carbazole-3-carboxylic acid] | 0.1 to 1 | 1 to 10
Cc1ccc2c(c1)c1cc(C(=O)N3CCC(O)C3)ccc1n2-c1ccc(C(F)(F)F)cc1 (stereo not drawn) [Compound 49, 1-{6-methyl-9-[4-(trifluoromethyl)phenyl]-9H-carbazole-3-carbonyl}pyrrolidin-3-ol] | 0.1 to 1 | 100 to 1000
Cc1ccc2c(c1)c1cc(C(=O)NCCn3ccnc3)ccc1n2-c1ccc(C(F)(F)F)cc1 [Compound 44, 6-Methyl-9-(4-trifluoromethyl-phenyl)-9H-carbazole-3-carboxylic acid (2-imidazol-1-yl-ethyl)-amide] | 0.1 to 1 | 100 to 1000
Cc1ccc2c(c1)c1cc(C(=O)NCc3cccnc3)ccc1n2-c1ccc(C(F)(F)F)cc1 [Compound 52, 6-methyl-N-[(pyridin-3-yl)methyl]-9-[4-(trifluoromethyl)phenyl]-9H-carbazole-3-carboxamide] | 0.001 to 0.1 | 100 to 1000
O=C(O)c1ccc2c(c1)c1cc(Cc3cccc(F)c3)ccc1n2-c1ccc(C(F)(F)F)cc1 [Compound 2, 6-[(3-fluorophenyl)methyl]-9-[4-(trifluoromethyl)phenyl]-9H-carbazole-3-carboxylic acid] | 0.1 to 1 | 100 to 1000

Now from value to compound:

IC50 [1] [µM] | IC50 [2] [nM] | Compound
0.001 to 0.1 | 10 to 100 | CCC(CO)NC(=O)c1ccc2c(c1)c1cc(C)ccc1n2-c1ccc(C(F)(F)F)cc1 (stereo not drawn) [Compound 42]
0.1 to 1 | 100 to 1000 | O=C(NC1CC1)c1cc2c3cccnc3n(-c3ccc(C(F)(F)F)cc3)c2cn1 [Compound 36, N-cyclopropyl-8-[4-(trifluoromethyl)phenyl]-5,8,10-triazatricyclo[7.4.0.0^2,^7]trideca-1(9),2(7),3,5,10,12-hexaene-4-carboxamide]
0.1 to 1 | 100 to 1000 | Cc1ccc2c(c1)c1cc(C(=O)NCc3nccn3C)ccc1n2-c1ccc(C(F)(F)F)cc1 [Compound 45]
0.001 to 0.1 | 10 to 100 | Cc1ccc2c(c1)c1cc(C(=O)NCc3ccncn3)ccc1n2-c1ccc(C(F)(F)F)cc1 [Compound 53, 6-methyl-N-[(pyrimidin-4-yl)methyl]-9-[4-(trifluoromethyl)phenyl]-9H-carbazole-3-carboxamide]
1 to 10 | 1 to 10 | Cc1ccc2c(c1)c1cc(C(=O)O)ccc1n2-c1ccc(OC(F)(F)F)cc1 [Compound 63, 6-methyl-9-[4-(trifluoromethoxy)phenyl]-9H-carbazole-3-carboxylic acid]
0.001 to 0.1 | 10 to 100 | Cc1ccc2c(c1)c1cc(C(=O)N[C@@H](CO)C3CCC3)ccc1n2-c1ccc(C(F)(F)F)cc1 [Compound 56, N-[(1R)-1-cyclobutyl-2-hydroxyethyl]-6-methyl-9-[4-(trifluoromethyl)phenyl]-9H-carbazole-3-carboxamide]
0.1 to 1 | 100 to 1000 | Cc1ccc2c(c1)c1cc(C(=O)N[C@H]3COC[C@@H]3O)ccc1n2-c1ccc(C(F)(F)F)cc1 [Compound 57, N-[(3S,4R)-4-hydroxyoxolan-3-yl]-6-methyl-9-[4-(trifluoromethyl)phenyl]-9H-carbazole-3-carboxamide]
0.001 to 0.1 | 10 to 100 | Cc1ccc2c(c1)c1cc(C(=O)NC(C)CO)ccc1n2-c1ccc(C(F)(F)F)cc1 (stereo not drawn) [Compound 39, N-(1-hydroxypropan-2-yl)-6-methyl-9-[4-(trifluoromethyl)phenyl]-9H-carbazole-3-carboxamide]
> 10 | 100 to 1000 | O=C(O)c1ccc2c(c1)c1cc(Cc3ccc(F)cc3)ccc1n2-c1ccc(C(F)(F)F)cc1 [Compound 4, 6-[(4-fluorophenyl)methyl]-9-[4-(trifluoromethyl)phenyl]-9H-carbazole-3-carboxylic acid]
0.1 to 1 | 100 to 1000 | Cc1ccc2c(c1)c1cc(C(=O)NC3(CO)CCC3)ccc1n2-c1ccc(C(F)(F)F)cc1 [Compound 54, N-[1-(hydroxymethyl)cyclobutyl]-6-methyl-9-[4-(trifluoromethyl)phenyl]-9H-carbazole-3-carboxamide]
0.1 to 1 | 100 to 1000 | Cc1ccc2c(c1)c1cc(C(=O)NC(CO)C(C)C)ccc1n2-c1ccc(C(F)(F)F)cc1 (stereo not drawn) [Compound 41, N-(1-hydroxy-3-methylbutan-2-yl)-6-methyl-9-[4-(trifluoromethyl)phenyl]-9H-carbazole-3-carboxamide]
0.1 to 1 | 100 to 1000 | Cc1ccc2c(c1)c1cc(C(=O)N[C@H](c3ccccc3)[C@H](C)O)ccc1n2-c1ccc(C(F)(F)F)cc1 [Compound 58, N-[(1R,2S)-2-hydroxy-1-phenylpropyl]-6-methyl-9-[4-(trifluoromethyl)phenyl]-9H-carbazole-3-carboxamide]
